Assay results from PMC11770101, “Nonenzymatic lysine D-lactylation induced by glyoxalase II substrate SLG dampens inflammatory immune responses” (Cell Research, 2025).

Target: T1, glyoxalase II (GLO2) (Mus musculus, UniProt Q99KB8)
T1 construct: gene Hagh
Test: LC-MS quantification of accumulated GLO2 substrate SLG in BMDMs treated with […] DiFMOC-G for […] h
Assay type: cell-based

SMILES: O=C(O)CNC(=O)[C@H](CSC(=O)OCC1c2ccccc2-c2ccccc21)NC(=O)CC[C@H](NC(=O)OCC1c2ccccc2-c2ccccc21)C(=O)O [DiFMOC-G]
- LC-MS quantification of accumulated GLO2 substrate SLG in BMDMs treated with 0.4: treatment with DiFMOC-G could dramatically induce SLG accumulation (Fig. 4e), recapitulating changes observed during macrophage activation
